Tests used:
Format in all cases: in vivo
rice (Oryza sativa) = test: Test B flooded paddy; conditions: 250 g ai/ha, Flood, 13 to 15 days, scale 0 (no effect) to 100 (complete control)
Excerpt: (§1) At time of treatment, test pots were flooded to 3 cm above the soil surface, treated by application of test compounds directly to the paddy water, and then maintained at that water depth for the duration of the test. Treated plants and controls were maintained in a greenhouse for 13 to 15 days, after which time all species were compared to controls and visually evaluated. […] A dash (-) response means no test result.

[1] = tested on: barnyardgrass (Echinochloa crus-galli); test: Test B flooded paddy; conditions: 250 g ai/ha, Flood, 13 to 15 days, scale 0 (no effect) to 100 (complete control)
Excerpt: as §1

[2] = tested on: sedge, umbrella (small-flower umbrella sedge, Cyperus difformis); test: Test B flooded paddy; conditions: 250 g ai/ha, Flood, 13 to 15 days, scale 0 (no effect) to 100 (complete control)
Excerpt: as §1

[3] = tested on: ducksalad (Heteranthera limosa); test: Test B flooded paddy; conditions: 250 g ai/ha, Flood, 13 to 15 days, scale 0 (no effect) to 100 (complete control)
Excerpt: as §1

[4] = tested on: pigweed (Amaranthus retroflexus); test: Test A postemergence; conditions: 0 to 100 scale
Method in brief: (§2)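 Visual 0–100 rating (100 = complete control) taken about 10 d post-treatment relative to untreated checks. Preemergence: directed soil spray on sown loam/sand pots. Postemergence: seedlings 2–10 cm, 1–2 leaf. Non-phytotoxic solvent formulation with surfactant.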

[5] = tested on: Italian ryegrass (Lolium multiflorum); test: Test A postemergence; conditions: 0 to 100 scale
Method in brief: as §2

[6] = tested on: barnyardgrass (Echinochloa crus-galli); test: Test A postemergence; conditions: 0 to 100 scale
Method in brief: as §2

[7] = tested on: blackgrass (Alopecurus myosuroides); test: Test A postemergence; conditions: 0 to 100 scale
Method in brief: as §2

corn (Zea mays) = test: Test A postemergence; conditions: 0 to 100 scale
Method in brief: as §2

[8] = tested on: wheat (Triticum aestivum); test: Test A postemergence; conditions: 0 to 100 scale
Method in brief: as §2

[9] = tested on: galium (catchweed bedstraw, Galium aparine); test: Test A postemergence; conditions: 0 to 100 scale
Method in brief: as §2

kochia (Kochia scoparia) [10] = test: Test A postemergence; conditions: 0 to 100 scale
Method in brief: as §2

[11] = tested on: ragweed (common ragweed, Ambrosia elatior); test: Test A postemergence; conditions: 0 to 100 scale
Method in brief: as §2

[12] = tested on: giant foxtail (Setaria faberii); test: Test A postemergence; conditions: 0 to 100 scale
Method in brief: as §2

[13] = tested on: pigweed (Amaranthus retroflexus); test: Test A preemergence; conditions: for Pigweed plant response rating: 0 to 100 scale (0 no effect, 100 complete control)
Method in brief: as §2

[14] = tested on: Italian ryegrass (Lolium multiflorum); test: Test A preemergence; conditions: for Ryegrass, Italian plant response rating: 0 to 100 scale (0 no effect, 100 complete control)
Method in brief: as §2

[15] = tested on: barnyardgrass (Echinochloa crus-galli); test: Test A preemergence; conditions: for Barnyardgrass plant response rating: 31 g ai/ha, 0 to 100 scale (0 no effect, 100 complete control); for Plant response rating, Barnyardgrass: 125 g ai/ha, 0 to 100 scale
Method in brief: as §2

kochia (Kochia scoparia) [16] = test: Test A preemergence; conditions: for Kochia plant response rating: 0 to 100 scale (0 no effect, 100 complete control)
Method in brief: as §2

[17] = tested on: ragweed (common ragweed, Ambrosia elatior); test: Test A preemergence; conditions: for Ragweed plant response rating: 0 to 100 scale (0 no effect, 100 complete control)
Method in brief: as §2

[18] = tested on: giant foxtail (Setaria faberii); test: Test A preemergence; conditions: for Foxtail, Giant plant response rating: 0 to 100 scale (0 no effect, 100 complete control)
Method in brief: as §2

## Fc1ccc(F)c(Oc2ncc(C(F)(F)F)cn2)c1Oc1ncc(C(F)(F)F)cn1 [Compound 30]
Rice (Oryza sativa)
  Plant response rating, Rice: 0
[1]
  Plant response rating, Barnyardgrass: 0
[2]
  Plant response rating, Sedge, Umbrella: 0
[3]
  Plant response rating, Ducksalad: 0
[4]; 31 g ai/ha
  Plant response rating, Pigweed: 60
[4]; 125 g ai/ha
  Plant response rating, Pigweed: 70
[5]; 31 g ai/ha
  Plant response rating, Ryegrass, Italian: 0
[5]; 125 g ai/ha
  Plant response rating, Ryegrass, Italian: 0
[6]; 31 g ai/ha
  Plant response rating, Barnyardgrass: 0
[6]; 125 g ai/ha
  Plant response rating, Barnyardgrass: 0
[7]; 31 g ai/ha
  Plant response rating, Blackgrass: 0
[7]; 125 g ai/ha
  Plant response rating, Blackgrass: 30
Corn (Zea mays); 31 g ai/ha
  Plant response rating, Corn: 0
Corn (Zea mays); 125 g ai/ha
  Plant response rating, Corn: 0
[8]; 31 g ai/ha
  Plant response rating, Wheat: 0
[8]; 125 g ai/ha
  Plant response rating, Wheat: 0
[9]; 31 g ai/ha
  Plant response rating, Galium: 60
[9]; 125 g ai/ha
  Plant response rating, Galium: 70
Kochia (Kochia scoparia) [10]; 31 g ai/ha
  Plant response rating, Kochia: 0
Kochia (Kochia scoparia) [10]; 125 g ai/ha
  Plant response rating, Kochia: 0
[11]; 31 g ai/ha
  Plant response rating, Ragweed: 0
[11]; 125 g ai/ha
  Plant response rating, Ragweed: 0
[12]; 31 g ai/ha
  Plant response rating, Foxtail, Giant: 0
[12]; 125 g ai/ha
  Plant response rating, Foxtail, Giant: 10
[13]; 31 g ai/ha
  Pigweed plant response rating: 90
[13]; 125 g ai/ha
  Pigweed plant response rating: 100
[14]; 31 g ai/ha
  Ryegrass, Italian plant response rating: 0
[14]; 125 g ai/ha
  Ryegrass, Italian plant response rating: 0
[15]
  Barnyardgrass plant response rating: 0
  Plant response rating, Barnyardgrass: 10
Kochia (Kochia scoparia) [16]; 31 g ai/ha
  Kochia plant response rating: 10
Kochia (Kochia scoparia) [16]; 125 g ai/ha
  Kochia plant response rating: 20
[17]; 31 g ai/ha
  Ragweed plant response rating: 0
[17]; 125 g ai/ha
  Ragweed plant response rating: 0
[18]; 31 g ai/ha
  Foxtail, Giant plant response rating: 10
[18]; 125 g ai/ha
  Foxtail, Giant plant response rating: 50

## N#Cc1cccc(Oc2ncc(C(F)(F)F)cn2)c1Oc1ncc(C(F)(F)F)cn1 [Compound 35]
Rice (Oryza sativa)
  Plant response rating, Rice: 40
[1]
  Plant response rating, Barnyardgrass: 0
[2]
  Plant response rating, Sedge, Umbrella: 60
[3]
  Plant response rating, Ducksalad: 60
[4]; 31 g ai/ha
  Plant response rating, Pigweed: 70
[4]; 125 g ai/ha
  Plant response rating, Pigweed: 100
[5]; 31 g ai/ha
  Plant response rating, Ryegrass, Italian: 0
[5]; 125 g ai/ha
  Plant response rating, Ryegrass, Italian: 30
[6]; 31 g ai/ha
  Plant response rating, Barnyardgrass: 0
[6]; 125 g ai/ha
  Plant response rating, Barnyardgrass: 40
[7]; 31 g ai/ha
  Plant response rating, Blackgrass: 10
[7]; 125 g ai/ha
  Plant response rating, Blackgrass: 50
Corn (Zea mays); 31 g ai/ha
  Plant response rating, Corn: 0
Corn (Zea mays); 125 g ai/ha
  Plant response rating, Corn: 30
[8]; 31 g ai/ha
  Plant response rating, Wheat: 0
[8]; 125 g ai/ha
  Plant response rating, Wheat: 0
[9]; 31 g ai/ha
  Plant response rating, Galium: 40
[9]; 125 g ai/ha
  Plant response rating, Galium: 70
Kochia (Kochia scoparia) [10]; 31 g ai/ha
  Plant response rating, Kochia: 60
Kochia (Kochia scoparia) [10]; 125 g ai/ha
  Plant response rating, Kochia: 90
[11]; 31 g ai/ha
  Plant response rating, Ragweed: 10
[11]; 125 g ai/ha
  Plant response rating, Ragweed: 20
[12]; 31 g ai/ha
  Plant response rating, Foxtail, Giant: 0
[12]; 125 g ai/ha
  Plant response rating, Foxtail, Giant: 20
[13]; 31 g ai/ha
  Pigweed plant response rating: 100
[13]; 125 g ai/ha
  Pigweed plant response rating: 100
[14]; 31 g ai/ha
  Ryegrass, Italian plant response rating: 0
[14]; 125 g ai/ha
  Ryegrass, Italian plant response rating: 10
[15]
  Barnyardgrass plant response rating: 0
  Plant response rating, Barnyardgrass: 50
Kochia (Kochia scoparia) [16]; 31 g ai/ha
  Kochia plant response rating: 0
Kochia (Kochia scoparia) [16]; 125 g ai/ha
  Kochia plant response rating: 60
[17]; 31 g ai/ha
  Ragweed plant response rating: 0
[17]; 125 g ai/ha
  Ragweed plant response rating: 10
[18]; 31 g ai/ha
  Foxtail, Giant plant response rating: 30
[18]; 125 g ai/ha
  Foxtail, Giant plant response rating: 90

## N#Cc1cccc(Oc2ncc(Cl)cn2)c1Oc1ccc(C(F)(F)F)cn1 [Compound 14]
Rice (Oryza sativa)
  Plant response rating, Rice: 15
[1]
  Plant response rating, Barnyardgrass: 0
[2]
  Plant response rating, Sedge, Umbrella: 0
[3]
  Plant response rating, Ducksalad: 30
[4]; 31 g ai/ha
  Plant response rating, Pigweed: 0
[4]; 125 g ai/ha
  Plant response rating, Pigweed: 50
[5]; 31 g ai/ha
  Plant response rating, Ryegrass, Italian: 0
[5]; 125 g ai/ha
  Plant response rating, Ryegrass, Italian: 0
[6]; 31 g ai/ha
  Plant response rating, Barnyardgrass: 0
[6]; 125 g ai/ha
  Plant response rating, Barnyardgrass: 0
[7]; 31 g ai/ha
  Plant response rating, Blackgrass: 0
[7]; 125 g ai/ha
  Plant response rating, Blackgrass: 30
Corn (Zea mays); 31 g ai/ha
  Plant response rating, Corn: 0
Corn (Zea mays); 125 g ai/ha
  Plant response rating, Corn: 0
[8]; 31 g ai/ha
  Plant response rating, Wheat: 0
[8]; 125 g ai/ha
  Plant response rating, Wheat: 0
[9]; 31 g ai/ha
  Plant response rating, Galium: 40
[9]; 125 g ai/ha
  Plant response rating, Galium: 50
Kochia (Kochia scoparia) [10]; 31 g ai/ha
  Plant response rating, Kochia: 0
Kochia (Kochia scoparia) [10]; 125 g ai/ha
  Plant response rating, Kochia: 0
[11]; 31 g ai/ha
  Plant response rating, Ragweed: 0
[11]; 125 g ai/ha
  Plant response rating, Ragweed: 0
[12]; 31 g ai/ha
  Plant response rating, Foxtail, Giant: 0
[12]; 125 g ai/ha
  Plant response rating, Foxtail, Giant: 20
[13]; 31 g ai/ha
  Pigweed plant response rating: 40
[13]; 125 g ai/ha, 0 to 100 scale
  Plant response rating, Pigweed: 80
[14]; 31 g ai/ha
  Ryegrass, Italian plant response rating: 0
[14]; 125 g ai/ha, 0 to 100 scale
  Plant response rating, Ryegrass, Italian: 0
[15]
  Barnyardgrass plant response rating: 0
  Plant response rating, Barnyardgrass: 0
Kochia (Kochia scoparia) [16]; 31 g ai/ha
  Kochia plant response rating: 0
Kochia (Kochia scoparia) [16]; 125 g ai/ha, 0 to 100 scale
  Plant response rating, Kochia: 0
[17]; 31 g ai/ha
  Ragweed plant response rating: 0
[17]; 125 g ai/ha, 0 to 100 scale
  Plant response rating, Ragweed: 0
[18]; 31 g ai/ha
  Foxtail, Giant plant response rating: 0
[18]; 125 g ai/ha, 0 to 100 scale
  Plant response rating, Foxtail, Giant: 0

Source: US20170190671A1, “BIS(ARYL)CATECHOL DERIVATIVES AS HERBICIDES” (E I DU PONT DE NEMOURS AND COMPANY, priority 2014, published 2017)
